Earlier results in publication PMC4433633, “A Heparan Sulfate-Binding Cell Penetrating Peptide for Tumor Targeting and Migration Inhibition” (BioMed Research International, 2015).

Details: ref [56]
Source text: Although CPPs as noninvasive agents have promising biomedical potential for molecular delivery, they are mostly unfeasible for in vivo researches due to nonspecificity of their highly cationic characteristic such as TAT peptide. Due to high uptake rates in vitro and relatively low specificity in vivo of most CPPs, conventional CPPs would be designed for topical applications in CPP-based delivery (Table 1). […] Although TAT peptide (46–57) de ...

Sequence: SYGRKKRRQRRR [TAT peptide (46–57), multifunctional CPP […]]
- target specificity in vivo: low target specificity in vivo
